Where two headings read alike, the source gives them in different places. Where a SMILES comes first, the peptide text is derived from it. Bridges are numbered along the chain shown (N, C = ends).
Legend:
[1] = human, in vivo
[2] = clinical; conditions: human, in vivo; for AUC(0-t) / Cmax: iv
[3] = test system: patients with HRS-1; assay: ACLF grade and respiratory failure with terlipressin, double-blind placebo-controlled trial (Example 3); type: in vivo, human
Method: In FIG. 6B, the incidence of respiratory failure was based on CLIF-SOFA score definition of respiratory failure.
The study was a double-blind placebo-controlled trial. […] HRS-1 was defined as rapidly rising serum creatinine (SCr) to ≥2.25 mg/dl in <14 days without response to volume challenge or evidence of structural renal disease.
All patients were assessed for organ failure (OF) per EASL-CLIF criteria and then classified into grades of acute-on-chronic liver failure (ACLF). All patients had at minimum grade 1 ACLF due to the presence of HRS-1; grades 2 and 3 ACLF represent 2 or 3 OFs respectively. Patients were separated into into grade≤2 and grade 3 ACLF subgroups.

[4] = test system: QTc interval; assay: Cardiac electrophysiology in 41 patients with HRS-1; type: in vivo, human; conditions: 1 mg terlipressin acetate every 6 hours up to 14 days; Fridericia correction
Excerpt: Increases of the mean QTc interval of <10 ms were reported.

[5] = test system: CYP enzymes; assay: CYP inhibition and induction in human liver microsomes; type: in vitro ADME
Excerpt: (§1) No significant drug-drug interactions are anticipated with terlipressin (TERLIVAZ).

[6] = test system: human ABC and SLC transporters; assay: Transporter inhibition and substrate studies; type: in vitro ADME
Excerpt: as §1

[7] = Metabolism in blood or plasma
Excerpt: Once formed, lysine-vasopressin is metabolized by body tissue via various peptidase-mediated routes.

[8] = test system: pregnant guinea pigs; conditions: doses lower than the maximum recommended human dose of 4 mg/day; cited from earlier work
[9] = test system: rabbits; conditions: increased resorptions, implantation loss, fetal anomalies and deformities; cited from earlier work
[10] = test system: patients; conditions: voluntary reports; cited from earlier work
[11] = test system: pregnant women; conditions: single intravenous or intranasal dose, first trimester; cited from earlier work
[12] = background statement; cited from earlier work
[13] = test system: mouse; assay: In vivo mouse micronucleus assay
[14] = test system: bacterial; assay: In vitro bacterial reverse mutation assay
[15] = Pharmacokinetics and excretion in healthy subjects
[16] = test system: mammalian cell (CHO); assay: In vitro mammalian cell (CHO) chromosome aberration assay
[17] = Pharmacokinetic modeling with sparse PK samples from 69 patients with HRS-1; conditions: for AUC(0-t) / Cmax: iv
[18] = test system: patients with HRS-1; assay: CONFIRM randomized, placebo-controlled, double-blind study of terlipressin plus albumin; conditions: for between-group difference in the incidence of respiratory failure SAEs / between-group difference in the incidence of respiratory failure fatal AEs: terlipressin minus placebo
Method: In particular, HRS-1 was defined based on modified prior criteria outlined by the International Club of Ascites (ICA), as rapidly deteriorating renal function to SCr≥2.25 mg/dl, with actual or projected doubling of SCr within 2 weeks, without improvement in renal function (<20% decrease in SCr 48 hours after both diuretic withdrawal and albumin-fluid challenge) in adult patients with cirrhosis and ascites. […] Treatment was continued to Day 14 unless the following occurred: verified HRS reversal (VHRSR), renal replacement therapy (RRT), liver transplantation (LT) or SCr at or above baseline (BL) at Day 4. VHRSR, the primary endpoint, was defined as 2 consecutive SCr values≤1.5 mg/dl, at least 2 hours apart, with subjects alive without RRT for at least 10 days after the second SCr≤1.5 mg/dL; HRS reversal (HRSR) was a decrease in SCr to ≤1.5 mg/dL. Secondary end points included HRS reversal (any SCr value 1.5 mg/dL or less during treatment), HRS reversal without RRT by day 30, HRS reversal in patients with systemic inflammatory response syndrome, and verified HRS reversal without recurrence by day 30.
The patients were at least 18 years of age, with cirrhosis, ascites, and rapidly progressive renal failure, with a SCr doubling to at least 2.25 mg/dL within 14 days. Major exclusion criteria included SCr of greater than 7.0 mg/dL, one or more large-volume paracenteses of 4 L or more within 2 days of randomization, evidence of parenchymal renal diseases or obstructive uropathy, or presence of sepsis and/or uncontrolled bacterial infection. Patients with severe cardiovascular disease or recent (within 4 weeks) renal replacement therapy (RRT) were excluded.
300 subjects were enrolled in the study. […] Patients were stratified by qualifying SCr (less than 3.4 mg/dL or 3.4 mg/dL or greater) and pre-enrollment large-volume paracentesis (at least one single event of 4 L or greater, or less than 4 L within 3 to 14 days prior to randomization).
A baseline SCr value was assessed before the patients received the assigned treatment. […] In keeping with current guidelines, it was strongly recommended that albumin (1 g/kg to a maximum of 100 g, on day 1 and 20 to 40 g/day thereafter) be administered to all subjects. If SCr decreased <30% from the baseline value on Day 4, after a minimum of 10 doses of study drug, dose increase to 2 mg every 6 hours (±30 minutes) (8 mg/day) was mandated, except in subjects with coronary artery disease or in the setting of circulatory overload, pulmonary edema, or bronchospasm. Dose resumption was permitted after interruption for adverse events except for cardiac or mesenteric ischemia, for which treatment was permanently discontinued.
The primary efficacy end point was the incidence of verified HRS reversal, defined as the percentage of patients with two consecutive SCr values no greater than 1.5 mg/dl at least 2 hours apart, while remaining alive without RRT for at least 10 days after achieving verified HRS reversal, while excluding SCr values after RRT, transjugular intrahepatic portosystemic shunt, liver transplant, or open-label vasopressor from primary end point analysis.
Secondary efficacy end points included incidence of HRS reversal, defined as the percentage of patients with an on-treatment SCr value of 1.5 mg/dl or less; durability of HRS reversal, defined as the percentage of patients with HRS reversal without RRT to day 30; incidence of HRS reversal among patients with systemic inflammatory response syndrome; and incidence of verified HRS reversal without HRS recurrence by day 30.

In the case of `NCCCC[C@H](NC(=O)[C@@H]1CCCN1C(=O)[C@@H]1CSSC[C@H](N)C(=O)N[C@@H](Cc2ccc(O)cc2)C(=O)N[C@@H](Cc2ccccc2)C(=O)N[C@@H](CCC(N)=O)C(=O)N[C@@H](CC(N)=O)C(=O)N1)C(=O)NCC(N)=O` [lysine-vasopressin], the pharmacokinetic linearity [1] is reported as “linear pharmacokinetics”, the Vd [2] is reported as 1370 L and the clearance ([2]; 1 mg, clearance (derived typical population PK parameter)) is reported as 5300 mL/min. It also gave a clearance ([2]; clearance, typical population PK parameter (range)) of 4720 to 6050 mL/min, an AUC(0-t) ([2]; 1 mg, AUC24h (range)) of 3.78 to 33.5 ng·h/mL and a Cmax ([2]; 1 mg, Cmax (range)) of 0.4 to 3.36 ng/mL. It also gave an AUC(0-t) ([2]; 1 mg, mean AUC24h) of 11.2 ng·h/mL, a Cmax ([2]; 1 mg, mean Cmax) of roughly 1.2 ng/mL and an AUC(0-t) ([2]; 1 mg, median AUC24h at steady state) of 11.2 ng·h/mL. It also gave a Cmax ([2]; 1 mg, median Cmax at steady state) of 1.2 ng/mL and a half-life ([2]; terminal half-life) of roughly 3 h.
For `NCCCC[C@H](NC(=O)[C@@H]1CCCN1C(=O)[C@@H]1CSSC[C@H](NC(=O)CNC(=O)CNC(=O)CN)C(=O)N[C@@H](Cc2ccc(O)cc2)C(=O)N[C@@H](Cc2ccccc2)C(=O)N[C@@H](CCC(N)=O)C(=O)N[C@@H](CC(N)=O)C(=O)N1)C(=O)NCC(N)=O` [Terlipressin, N—[N—(N-glycylglycyl)glycyl]-8-L-lysinevasopressin] (H-GGGCYFQNCPKG-NH2; disulfide 4-9 (inferred)), the “percent of patients with respiratory failure” value ([3]; ACLF 3, FIG. 6C, investigator reported) was “much higher than placebo”, the “incidence of respiratory failure, baseline to end of treatment” value ([3]; FIGS. 6A-6B, CLIF-SOFA definition) was “increased incidence of respiratory failure” and the “Increases of the mean QTc interval” value [4] was less than 10 ms. The “QTc changes from baseline” value [4] was “No clinically meaningful changes from baseline”, the “direct-, time-, or metabolism dependent inhibitor and inducer of CYP enzymes” value [5] was “little or no evidence” and the “inhibitor and substrate of human ABC and SLC transporters” value [6] was “little or no evidence”. For the same compound, the “metabolism in blood or plasma” value [7] was “not metabolized in blood or plasma”, the reproductive toxicity finding [8] was “marked decrease in blood flow to the uterus and placenta” and the reproductive toxicity finding [9] was “embryotoxic and teratogenic”. For the same compound, the “Adverse reactions reported from postmarketing experience” value [10] was “headache hyponatremia, skin necrosis and gangrene”, the effect in pregnancy [11] was “induced uterine contractions and endometrial ischemia” and the duration of action [12] was 2 to 10 h. For the same compound, the half-life [12] was 6 h, the mutagenicity / clastogenicity [13] was “not mutagenic or clastogenic” and the mutagenicity / clastogenicity [14] was “not mutagenic or clastogenic”. The “dose-dependent changes in the elimination rate constant” value [15] was “no dose-dependent changes”, the pharmacokinetic linearity [15] was “linear pharmacokinetics” and the mutagenicity / clastogenicity [16] was “not mutagenic or clastogenic”. For the same compound, the “median Cave at steady state” value ([17]; 1 mg IV injection of terlipressin acetate) was 14.2 ng/mL, the “mean Cave” value ([17]; 1 mg dose of terlipressin acetate IV) was “about 14.2 ng/ml” and the Vd ([17]; human, in vivo) was 6.3 L. The clearance ([17]; human, in vivo, 1 mg, clearance (derived typical population PK parameter), 1 mg terlipressin acetate) was 457 mL/min, the clearance ([17]; human, in vivo, clearance, typical population PK parameter (range)) was 413 to 518 mL/min and the AUC(0-t) ([17]; human, in vivo, 1 mg, AUC24h (range), 1 mg dose of terlipressin acetate IV) was 61.2 to 246 ng·h/mL. For the same compound, the Cmax ([17]; human, in vivo, 1 mg, Cmax (range), 1 mg dose of terlipressin acetate IV) was 37.1 to 143 ng/mL, the AUC(0-t) ([17]; human, in vivo, 1 mg, mean AUC24h, 1 mg dose of terlipressin acetate IV) was roughly 123 ng·h/mL and the Cmax ([17]; human, in vivo, 1 mg, mean Cmax, 1 mg dose of terlipressin acetate IV) was roughly 70.5 ng/mL. The AUC(0-t) ([17]; human, in vivo, 1 mg, median AUC24h at steady state, 1 mg IV injection of terlipressin acetate) was 123 ng·h/mL, the Cmax ([17]; human, in vivo, 1 mg, median Cmax at steady state, 1 mg IV injection of terlipressin acetate) was 70.5 ng/mL and the half-life ([17]; human, in vivo, terminal half-life) was roughly 0.9 h. For the same compound, the “Treatment discontinuation due to adverse events” value ([18]; 24/200 patients) was 12.0%, the “most common adverse events that led to discontinuation” value ([18]; in vivo) was “respiratory failure, abdominal pain, and intestinal ischemia/obstruction” and the “subjects listed at baseline who did not receive a transplant and died by Day 90 (pre-transplant mortality)” value ([18]; mitigated population, 4 subjects) was 11.4%. The “AE leading to death up to 30 days post-treatment: Respiratory failure” value ([18]; mitigated population, N = 132) was 5.3 % of Subjects, the “Any AE leading to death up to 30 days post-treatment” value (from here on “Any AE leading to death up”) ([18]; mitigated population, N = 132) was 34.1 % of Subjects and the “Death by Day 30” value ([18]; mitigated population, N = 132) was 31.8 % of Subjects. For the same compound, the “Death by Day 60” value ([18]; mitigated population, N = 132) was 40.2 % of Subjects, the “Death by Day 90” value ([18]; mitigated population, N = 132) was 44.7 % of Subjects and the “Serior Adverse Events” value ([18]; mitigated population, N = 132) was 61.4 % of Subjects. The “Serious adverse events: Respiratory failure” value ([18]; mitigated population, N = 132) was 9.8 % of Subjects, the “Any AE leading to death up” value ([18]; mitigated population, N = 132, listed as terlipressin) was 31.8 % of Subjects and the “subjects listed at baseline who did not receive a transplant and died by Day 90 (pre-transplant mortality)” value ([18]; overall population, 12 subjects) was 21.4%. The “AE leading to death up to 30 days post-treatment: Respiratory failure” value ([18]; overall population, N = 200) was 8.5 % of Subjects, the “Any AE leading to death up” value ([18]; overall population, N = 200) was 41.5 % of Subjects and the “Death by Day 30” value ([18]; overall population, N = 200) was 39.0 % of Subjects. For the same compound, the “Death by Day 60” value ([18]; overall population, N = 200) was 47.0 % of Subjects, the “Death by Day 90” value ([18]; overall population, N = 200) was 51.0 % of Subjects and the “Serior Adverse Events” value ([18]; overall population, N = 200) was 65.0 % of Subjects. The “Serious adverse events: Respiratory failure” value ([18]; overall population, N = 200) was 13.5 % of Subjects, the “Any AE leading to death up” value ([18]; overall population, N = 200, listed as terlipressin) was 39.0 % of Subjects and the “Adverse reaction: Abdominal pain” value ([18]; patients (percent), N = 200) was 39 (19.5). For the same compound, the “Adverse reaction: Bradycardia” value ([18]; patients (percent), N = 200) was 10 (5.0), the “Adverse reaction: Diarrhea” value ([18]; patients (percent), N = 200) was 26 (13.0) and the “Adverse reaction: Dyspnea” value ([18]; patients (percent), N = 200) was 25 (12.5). For the same compound, the “Adverse reaction: Fluid overload” value ([18]; patients (percent), N = 200) was 17 (8.5), the “Adverse reaction: Nausea” value ([18]; patients (percent), N = 200) was 32 (16.0) and the “Adverse reaction: Pleural effusion” value ([18]; patients (percent), N = 200) was 11 (5.5). The “Adverse reaction: Respiratory failure” value ([18]; patients (percent), N = 200) was 31 (15.5), the “Adverse reaction: Sepsis” value ([18]; patients (percent), N = 200) was 11 (5.5) and the “Adverse reaction: Ischemia-related events” value ([18]; patients (percent), N = 200, skin discoloration, cyanosis, ischemia and intestinal ischemia) was 9 (4.5). For the same compound, the “serious or fatal respiratory failure” value ([18]; primary clinical trial) was 14%, the “between-group difference in the incidence of respiratory failure SAEs” value ([18]; mitigated population) was 2.8% and the “between-group difference in the incidence of respiratory failure fatal AEs” value ([18]; mitigated population) was 3.9%. The “between-group difference in the incidence of respiratory failure fatal AEs” value ([18]; overall population) was 7.5% and the “between-group difference in the incidence of respiratory failure SAEs” value ([18]; overall study population) was 8.4%.
In the case of `NC(=O)CC[C@@H]1NC(=O)[C@H](Cc2ccccc2)NC(=O)[C@H](Cc2ccc(O)cc2)NC(=O)[C@@H](N)CSSC[C@@H](C(=O)N2CCC[C@H]2C(=O)N[C@@H](CCCN=C(N)N)C(=O)NCC(N)=O)NC(=O)[C@H](CC(N)=O)NC1=O` [vasopressin], the duration of action [12] is given as 0.5 to 1 h and the half-life [12] is given as 0.1 h.
